Where two headings read alike, the source gives them in different places.
Assays:
[1] = tested on: Botrytis cinerea; assay: In vivo preventive test on Botrytis cinerea (beans)
Summary of the method: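 Young bean plants sprayed preventively with compound in acetone/dimethylacetamide/emulsifier diluted in water; after drying, each leaf inoculated with 2 agar pieces bearing Botrytis cinerea. Kept dark at 20° C, 100% humidity; lesion size scored at 2 days as % efficacy (0% = untreated, 100% = no disease).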

[2] = tested on: Sphaerotheca fuliginea; assay: In vivo preventive test on Sphaerotheca fuliginea (cucumber); conditions: 500 ppm of active ingredient, evaluated 7 days after inoculation
Summary of the method: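 Young cucumber plants sprayed with compound (in DMF with alkylarylpolyglycolether emulsifier, diluted in water) at the stated application rate. Inoculated one day later with aqueous Sphaerotheca fuliginea spore suspension. Plants then held in greenhouse at approximately 23° C and approximately 70% relative humidity.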

[3] = tested on: Fusarium nivale (var. majus); assay: In vivo preventive test on Fusarium nivale (wheat); conditions: 500 ppm of active ingredient, evaluated 5 days after inoculation
Protocol: (§1) Solvent: 49 parts by weight of N,N-dimethylacetamide Emulsifier: 1 part by weight of alkylaryl polyglycol ether To produce a suitable preparation of active compound, 1 part by weight of active compound or active compound combination is mixed with the stated amounts of solvent and emulsifier, and the concentrate is diluted with water to the desired concentration. To test for preventive activity, young plants are sprayed with the preparation of active compound or active compound combination at the stated rate of application. After the spray coating has been dried, the plants are slightly injured by using a sandblast and afterwards they are sprayed with a conidia suspension of Fusarium nivale (var. majus).

[4] = tested on: Septoria tritici; assay: In vivo preventive test on Septoria tritici (wheat); conditions: 500 ppm of active ingredient, evaluated 21 days after inoculation
Summary of the method: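 Compound formulated in N,N-dimethylacetamide with alkylaryl polyglycol ether emulsifier and diluted in water to the stated rate. Young wheat plants sprayed preventively; after the deposit dried, they were inoculated with a Septoria tritici spore suspension.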

[5] = tested on: aflatoxines produced by Aspergillus parasiticus; assay: microbe, parasite or virus in culture; format: cell-based
[6] = tested on: Alternaria solani; assay: In vivo preventive test on Alternaria solani (tomato); conditions: 500 ppm of active ingredient, evaluated 7 days after inoculation
Summary of the method: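 Young tomato plants sprayed preventively with compound in DMF/alkylarylpolyglycolether emulsion diluted in water to the stated rate. Inoculation with aqueous Alternaria solani spore suspension one day after treatment.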

[7] = tested on: Venturia inaequalis; assay: In vivo preventive test on Venturia inaequalis (apple scab); conditions: 100 ppm of active ingredient, evaluated 10 days after inoculation
Summary of the method: (§2)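 Young plants sprayed preventively at the stated application rate with compound dissolved in acetone/N,N-dimethylacetamide plus alkylaryl polyglycol ether emulsifier and diluted with water to the desired concentration.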

[8] = tested on: Puccinia triticina; assay: In vivo preventive test on Puccinia triticina (wheat)
[9] = tested on: Pyrenophora teres; assay: In vivo preventive test on Pyrenophora teres (barley); conditions: 500 ppm of active ingredient, evaluated 7-9 days after inoculation
Summary of the method: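 Compound formulated in N,N-dimethylformamide with alkylaryl polyglycol ether emulsifier and diluted in water, then sprayed on young barley plants at the stated application rate. Plants inoculated one day later with aqueous Pyrenophora teres spore suspension, testing preventive protection.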

[10] = tested on: Aspergillus parasiticus; assay: microbe, parasite or virus in culture; format: cell-based
[11] = tested on: Pyricularia oryzae; conditions: in vivo
[12] = tested on: Blumeria graminis fsp. hordei; assay: In vivo preventive test on Blumeria graminis (barley); conditions: 500 ppm of active ingredient, evaluated 7 days after inoculation
Protocol: as §1, with “dusted” for “slightly injured by using a sandblast and afterwards they are sprayed”, “spores” for “a conidia suspension”, “Blumeria graminis fsp. hordei.” for “Fusarium nivale (var. majus).”

[13] = tested on: Uromyces appendiculatus; assay: In vivo preventive test on Uromyces appendiculatus (beans); conditions: 100 ppm of active ingredient, evaluated 10 days after inoculation
Summary of the method: as §2

[14] = tested on: Cochliobolus miyabeanus; assay: In vivo protective test on Cochliobolus miyabeanus (rice); conditions: Table M, 250 ppm of active ingredient, evaluated 4 days after inoculation
[15] = log P by HPLC on reversed-phase column (EEC Directive 79/831 Annex V.A8); format: physicochemical
Protocol: In table 1, the log P values were determined in accordance with EEC Directive 79/831 Annex V.A8 by HPLC (High Performance Liquid Chromatography) on a reversed-phase column (C18), using the method described below: Temperature: 40° C.; […]

[16] = tested on: Phakopsora pachyrhizi; assay: In vivo protective test on Phakopsora pachyrhizi (soybeans); conditions: Table N, 250 ppm of active ingredient, evaluated 11 days after inoculation
[17] = tested on: Leptosphaeria nodorum; assay: In vivo preventive test on Leptosphaeria nodorum (wheat); conditions: 500 ppm of active ingredient, evaluated 7-9 days after inoculation
Summary of the method: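 Compound formulated in N,N-dimethylacetamide with alkylaryl polyglycol ether emulsifier and diluted with water. Young wheat plants were sprayed at the stated application rate, then inoculated one day later with an aqueous spore suspension of L. nodorum.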

[18] = Table L, 500 ppm of active ingredient, lesion size 2 days after inoculation
[19] = Table K, 500 ppm of active ingredient, evaluated 8 days after inoculation
[20] = 500 ppm of active ingredient, lesion size 2 days after inoculation

Row | Structure (SMILES) | Efficacy [1, 18] | Efficacy [2] | Efficacy [3] | Efficacy [4] | % Inhibition of Aflatoxin at 50 μM [5] | Efficacy [6] | Efficacy [7] | Efficacy [8, 19] | Efficacy [9] | Efficacy [11] | Efficacy [12] | Efficacy [13] | Efficacy [14] | logP [15] | Efficacy [16] | Efficacy [17] | % Inhibition of fungal growth at 50 μM [10] | also measured
1 | CC(C)CC(C)C1CCCC1NC(=O)c1c(C(F)F)nn(C)c1F (mixture of isomers) [Example 315] | 70% | 71% | 100% | 100% | 100% | 100% | 100% | 95% | 100% | 95% | 100% | 100% | 97% |  |  |  |  | % Inhibition of fungal growth at 50 μM ([10]; 50 µM): 100%
2 | CCCCC1CCCCC1NC(=O)c1c(C(F)F)nn(C)c1F (single isomer, unassigned) [Example 330] |  | 88% | 100% | 78% | 100% | 95% |  | 80% | 100% | 80% | 100% |  | 85% | 4.06 isomer B |  |  |  | % Inhibition of fungal growth at 50 μM ([10]; 50 µM): 87%
3 | CC(C)CC(C)C1CCCCC1NC(=O)c1c(C(F)F)nn(C)c1Cl (single isomer, unassigned) [Example 334] |  |  | 93% | 100% | 100% |  | 100% |  |  |  | 90% | 100% |  | 4.75 isomer A | 100% |  |  | % Inhibition of fungal growth at 50 μM ([10]; 50 µM): 90%
4 | CCCC1CCCCC1NC(=O)c1c(C(F)F)nn(C)c1F (single isomer, unassigned) [Example 344] | 100% | 100% | 100% | 94% | 100% | 100% |  | 100% | 100% | 95% | 100% |  | 95% | 3.61 isomer B |  | 90% |  | % Inhibition of fungal growth at 50 μM ([10]; 50 µM): 89%
5 | Cn1nc(C(F)F)c(C(=O)NC2CCCCC2CCC(C)(C)C)c1F (single isomer, unassigned) [Example 358] |  | 100% | 100% | 80% |  | 100% | 100% | 100% | 100% |  | 100% |  |  | 4.51 isomer B | 95% |  |  | 
6 | CC(CCc1c(Cl)cc(Cl)cc1Cl)NC(=O)c1c(C(F)F)nn(C)c1F (stereo not drawn) [Example 215] |  | 100% | 71% | 90% | 100% | 95% |  |  | 100% | 98% | 100% |  | 98% | 4.29 |  |  | 100% | 
7 | CC(CCc1c(Cl)cc(Cl)cc1Cl)NC(=O)c1c(C(F)F)nn(C)c1Cl (stereo not drawn) [Example 216] |  | 100% | 93% | 100% | 100% |  |  | 78% | 100% | 95% |  |  | 90% | 4.53 |  |  | 100% | 
8 | CON(C(=O)c1c(C(F)F)nn(C)c1F)C(C)CCc1c(Cl)cc(Cl)cc1Cl (stereo not drawn) [Example 217] |  | 100% | 100% | 100% | 100% |  | 100% | 89% | 100% | 97% | 100% |  | 98% | 4.77 |  | 78% | 100% | 
9 | Cn1nc(C(F)F)c(C(=O)N(CC2CCCCC2c2ccccc2)C2CC2)c1F (stereo not drawn) [Example 240] | 95% |  | 71% | 100% | 100% | 100% | 100% | 95% | 100% |  | 100% | 100% |  | 4.31 | 85% | 70% | 98% | Efficacy [1, 20]: at least 95%; Efficacy ([1]; Table L2, dose 500 ppm, comparison with des-fluoro analogues): 95%
10 | Cn1nc(C(F)F)c(C(=O)N(CC2CCCCC2c2ccccc2Cl)C2CC2)c1F (stereo not drawn) [Example 241] | 99% | 100% |  | 100% | 100% | 100% | 100% | 100% | 100% |  |  | 100% |  | 4.67 | 99% | 80% | 97% | 
11 | Cn1nc(C(F)F)c(C(=O)N(C2CC2)C2CCCC(c3ccccc3)C2)c1F (stereo not drawn) [Example 256] | 93% |  | 100% | 100% | 96% | 93% | 100% | 95% | 100% |  |  | 100% |  | 4.01 | 85% | 95% | 79% | Efficacy [1, 20]: at least 90%; Efficacy ([1]; Table L5, dose 500 ppm, comparison with des-fluoro analogues): 93%; Efficacy ([8]; 500 ppm of active ingredient, evaluated 8 days after inoculation): at least 95%; Efficacy ([8]; Table K5, dose 500 ppm, comparison with des-fluoro analogues): 95%
12 | CCCCC1CCCC1NC(=O)c1c(C(F)F)nn(C)c1F (stereo not drawn) [Example 306] | 94% | 95% | 100% |  | 100% | 100% | 99% | 95% | 100% | 95% | 100% | 70% | 95% | 3.59 |  |  | 100% | 
13 | CC(C)CCC1CCCCC1NC(=O)c1c(C(F)F)nn(C)c1F (stereo not drawn) [Example 333] |  | 100% | 100% | 100% | 100% | 100% | 99% | 90% | 100% |  | 100% |  |  | 4.22 | 97% | 80% | 92% | 
14 | Cn1nc(C(F)F)c(C(=O)NC2CCCCC2CC[Si](C)(C)C)c1F (stereo not drawn) [Example 353] |  |  | 100% | 80% | 99% | 95% | 99% | 70% | 95% |  | 90% |  |  | 4.70 | 85% |  | 85% | 

Reference: patent US8999956B2, “N-[(het)arylalkyl)] pyrazole(thio)carboxamides and their heterosubstituted analogues” (Bayer Intellectual Property GmbH, priority 2010, dated 2015)
